Measurements from patent publication US20260200928A1, “THERAPEUTIC COMPOUNDS” (Sanofi, priority 2022, published 2026).

Each compound was assayed against T1, human IL-17A (Homo sapiens, UniProt Q16552) (assay: IL-17A AlphaLISA competition assay (block of IL-17A binding to its receptor IL-17RA)). Conditions: mean IC50 (n≥2), block of IL-17A binding to IL-17RA.
T1 construct: purchased R&D Systems 7955-IL/CF
T1 sequence (Q16552 24-155): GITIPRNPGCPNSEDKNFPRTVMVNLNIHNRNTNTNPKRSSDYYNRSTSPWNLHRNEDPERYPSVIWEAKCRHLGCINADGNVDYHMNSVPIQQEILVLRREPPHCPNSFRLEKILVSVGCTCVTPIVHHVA
In short: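 Human recombinant IL-17A (7.5 nM stock) pre-incubated 30 min at RT with compound, then IL-17RA/Fc (5 nM stock) added for 90 min; AlphaLISA read with anti-Fc acceptor beads, biotinylated anti-IL-17A antibody (5 nM) and streptavidin donor beads (3 h, dark). IC50 from 4-parameter logistic fit, normalised to DMSO and 4 μM reference inhibitor; n≥2.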

Row | Compound | IC50 [nM]
1 | COC[C@H](c1ccnc(NC(=O)C(NC(=O)c2nonc2C2CC2)C2CCC(F)CC2)c1)N1C[C@@H](C(F)(F)F)NC1=O (single isomer, unassigned) [Example 277] | 44
2 | CCn1nccc1C(=O)N[C@H](C(=O)Nc1cc(C(COC)N2C[C@@H](C(F)(F)F)NC2=O)ccn1)[C@H]1CC[C@H](C)CC1 (single isomer, unassigned) [Example 124] | 20
3 | COCC(c1ccnc(NC(=O)[C@@H](NC(=O)c2conc2C(C)C)[C@H]2CC[C@H](C)CC2)c1)N1C[C@@H](C(F)(F)F)NC1=O (single isomer, unassigned) [Example 77] | 60
4 | CCc1nonc1C(=O)N[C@H](C(=O)Nc1cc(C(COC)N2C[C@@H](C(F)(F)F)NC2=O)ccn1)[C@H]1CC[C@H](C)CC1 (single isomer, unassigned) [Example 88] | 4
5 | COCC(NC(=O)CCC(F)(F)F)c1ccnc(NC(=O)C(NC(=O)c2nonc2C)C2CCC(C)CC2)c1 [Example 242, N-((1S)-2-((4-(2-methoxy-1-(4,4,4-trifluorobutanamido)ethyl)pyridin-2-yl)amino)-1-((1r,4S)-4-methylcyclohexyl)-2-oxoethyl)-4-methyl-1,2,5-oxadiazole-3-carboxamide] | 85
6 | C[C@H]1CC[C@H]([C@@H](NC(=O)c2nonc2C2CC2)C(=O)Nc2cc(C(NC(=O)CCC(F)(F)F)C3CC3)ccn2)CC1 (stereo partly drawn) [Example 235, 4-Cyclopropyl-N-((1S)-2-((4-(cyclopropyl(4,4,4-trifluorobutanamido)-methyl)pyridin-2-yl)amino)-1-((1r,4S)-4-methylcyclohexyl)-2-oxoethyl)-1,2,5-oxadiazole-3-carboxamide] | 66
7 | COC[C@H](c1ccnc(NC(=O)[C@@H](NC(=O)c2ccnn2C)C2CCC(F)(F)CC2)c1)N1C[C@@H](C(F)(F)F)NC1=O [Example 202, N-((S)-1-(4,4-difluorocyclohexyl)-2-((4-((S)-2-methoxy-1-((S)-2-oxo-4-(trifluoromethyl)imidazolidin-1-yl)ethyl)pyridin-2-yl)amino)-2-oxoethyl)-1-methyl-1H-pyrazole-5-carboxamide] | 70
8 | CC(C)c1nocc1C(=O)N[C@H](C(=O)Nc1cc(CN2C[C@@H](C(F)(F)F)NC2=O)ccn1)[C@@H](C)OC(C)(C)C [Example 130, N-((2S,3R)-3-(tert-butoxy)-1-oxo-1-((4-(((S)-2-oxo-4-(trifluoromethyl)-imidazolidin-1-yl)methyl)-pyridin-2-yl)amino)butan-2-yl)-3-isopropyl-isoxazole-4-carboxamide] | 350
9 | CC(C)(C)OC(=O)N1CCn2c(ccc2C(=O)N[C@H](C(=O)Nc2cc(CN3C[C@@H](C(F)(F)F)NC3=O)ccn2)C2CCC(F)(F)CC2)C1 [Example 11, Tert-butyl 6-(((S)-1-(4,4-difluorocyclohexyl)-2-oxo-2-((4-(((S)-2-oxo-4-(trifluoromethyl)imidazolidin-1-yl)methyl)pyridin-2-yl)amino)ethyl)carbamoyl)-3,4-dihydropyrrolo[1,2-a]pyrazine-2(1H)-carboxylate] | 359
10 | Cc1cc(COC(=O)N[C@H](C(=O)Nc2cc(CN3C[C@@H](C(F)(F)F)NC3=O)ccn2)C2CCC(F)(F)CC2)no1 [Example 57, (5-Methylisoxazol-3-v)methyl ((S)-1-(4,4-difluorocyclohexyl)-2-oxo-2-((4-(((S)-2-oxo-4-(trifluoromethyl)imidazolidin-1-VI)methyl)pyridin-2-yl)amino)ethyl)carbamate] | 1960
11 | CCc1nonc1C(=O)N[C@H](C(=O)Nc1cc([C@@H](COC)N2C[C@@H](C(F)(F)F)NC2=O)ccn1)C1CCC(Cl)CC1 (stereo partly drawn) [Example 316, N-((1S)-1-(4-chlorocyclohexyl)-2-((4-((S)-2-methoxy-1-((S)-2-oxo-4-(trifluoromethyl)imidazolidin-1-yl)ethyl)pyridin-2-yl)amino)-2-oxoethyl)-4-ethyl-1,2,5-oxadiazole-3-carboxamide] | 46
12 | O=C(N[C@H](C(=O)Nc1cc(CN2C[C@@H](C(F)(F)F)NC2=O)ccn1)C(C1CC1)C1CC1)c1nonc1C1CC1 [Example 16, 4-cyclopropyl-N-((S)-1,1-dicyclopropyl-3-oxo-3-((4-(((S)-2-oxo-4-(trifluoromethyl)imidazolidin-1-yl)methyl)pyridin-2-yl)amino)propan-2-yl)-1,2,5-oxadiazole-3-carboxamide] | 157
13 | COC[C@H](c1ccnc(NC(=O)C(NC(=O)c2conc2C)C2CCC(F)CC2)c1)N1C[C@@H](C(F)(F)F)NC1=O (single isomer, unassigned) [Example 283] | 97
14 | COCC(NC(=O)CCC(F)(F)F)c1ccnc(NC(=O)[C@@H](NC(=O)c2nonc2C2CC2)C2CCC(F)(F)CC2)c1 (single isomer, unassigned) [Example 133] | 73
15 | CCc1nonc1C(=O)N[C@@H](COC(C)(C)C(F)(F)F)C(=O)Nc1cc([C@@H](COC)N2C[C@@H](C(F)(F)F)NC2=O)ccn1 [Example 266, 4-ethyl-N-((S)-1-((4-((S)-2-methoxy-1-((S)-2-oxo-4-(trifluoromethyl)imidazolidin-1-yl)ethyl)pyridin-2-yl)amino)-1-oxo-3-((1,1,1-trifluoro-2-methylpropan-2-yl)oxy)propan-2-yl)-1,2,5-oxadiazole-3-carboxamide] | 15
16 | CCn1nccc1C(=O)N[C@H](C(=O)Nc1cc(C(COC)NC(=O)CCC(F)(F)F)ccn1)C1CCC(F)(F)CC1 (single isomer, unassigned) [Example 144] | 1830
17 | COCC(c1ccnc(NC(=O)C(NC(=O)Cc2cc(C)on2)C2CCC(C)CC2)c1)N1CC(C(F)(F)F)NC1=O (single isomer, unassigned) [Example 253] | 106
18 | CC(C)(C)OC(=O)N[C@H](C(=O)Nc1cc(CN2C[C@@H](C(F)(F)F)NC2=O)c(F)cn1)[C@H]1CC[C@H](C)CC1 [Example 50, tert-butyl ((S)-2-((5-fluoro-4-(((S)-2-oxo-4-(trifluoromethyl)imidazolidin-1-yl)methyl)pyridin-2-yl)amino)-1-((1r,4S)-4-methylcyclohexyl)-2-oxoethyl)carbamate] | 2950
19 | COCC(c1ccnc(NC(=O)[C@@H](NC(=O)c2nonc2C2CC2)C2CCC(F)(F)CC2)c1)[C@@H]1C[C@@H](C(F)(F)F)NC1=O (single isomer, unassigned) [Example 184, 4-Cyclopropyl-N—((S)-1-(4,4-difluorocyclohexyl)-2-((4-((R or S)-2-methoxy-1-((3S,5S)-2-oxo-5-(trifluoromethyl)pyrrolidin-3-yl)ethyl)pyridin-2-yl)amino)-2-oxoethyl)-1,2,5-oxadiazole-3-carboxamide] | 637
20 | COC[C@H](c1ccnc(NC(=O)[C@@H](NC(=O)c2conc2C(C)C)C2CCC(F)(F)CC2)c1)N1C[C@@H](C(F)(F)F)NC1=O [Example 197, N-((S)-1-(4,4-difluorocyclohexyl)-2-((4-((S)-2-methoxy-1-((S)-2-oxo-4-(trifluoromethyl)imidazolidin-1-yl)ethyl)pyridin-2-yl)amino)-2-oxoethyl)-3-isopropylisoxazole-4-carboxamide] | 56
21 | CC(C)(C)OC(=O)N[C@H](C(=O)Nc1cc(C(NC(=O)CCC(F)(F)F)C2CC2)ccn1)C1CCC(F)(F)CC1 (single isomer, unassigned; diastereomer 1) [Example 72] | 547
22 | Cn1ccnc1C(=O)N[C@H](C(=O)Nc1cc(C(NC(=O)CCC(F)(F)F)C2CC2)ccn1)C1CCC(F)(F)CC1 (stereo partly drawn) [Example 111, N-((1S)-2-((4-(cyclopropyl(4,4,4-trifluorobutanamido)methyl)pyridin-2-yl)amino)-1-(4,4-difluorocyclohexyl)-2-oxoethyl)-1-methyl-1H-imidazole-2-carboxamide] | 6170
23 | Cc1nonc1C(=O)N[C@H](C(=O)Nc1cc(C(C)N2C[C@@H](C(F)(F)F)NC2=O)ccn1)C1CCC(F)(F)CC1 (single isomer, unassigned) [Example 169, N-((1S)-1-(4,4-Difluorocyclohexyl)-2-oxo-2-((4-(R or S)-(1-((S)-2-oxo-4-(trifluoromethyl)imidazolidin-1-yl)ethyl)pyridin-2-yl)amino)ethyl)-4-methyl-1,2,5-oxadiazole-3-carboxamide] | 79
24 | CCC(c1ccnc(NC(=O)C(NC(=O)c2ccnn2CC)C2CCC(C)CC2)c1)N1CC(C(F)(F)F)NC1=O [Example 258, 1-ethyl-N-((S)-1-((1r,4S)-4-methylcyclohexyl)-2-oxo-2-((4-((R)-1-((S)-2-oxo-4-(trifluoromethyl)imidazolidin-1-yl)propyl)pyridin-2-yl)amino)ethyl)-1H-pyrazole-5-carboxamide] | 9
25 | Cn1nccc1C(=O)N[C@H](C(=O)Nc1cc(OC2CCNC2=O)ccn1)[C@H]1CC[C@H](C)CC1 (stereo partly drawn) [Example 118, 1-methyl-N-((1S)-1-((1r,4S)-4-methylcyclohexyl)-2-oxo-2-((4-((2-oxopyrrolidin-3-yl)oxy)pyridin-2-yl)amino)ethyl)-1H-pyrazole-5-carboxamide] | 8970
26 | COCC(NC(=O)CCC(F)(F)F)c1ccnc(NC(=O)[C@@H](NC(=O)c2ccnn2CC2CC2)C2CCC(F)(F)CC2)c1 (single isomer, unassigned) [Example 147] | 828
27 | O=C(N[C@H](C(=O)Nc1cc(CN2C[C@@H](C(F)(F)F)NC2=O)ccn1)C1CCC(F)(F)CC1)c1conc1C1CC1 [Example 20, 3-cyclopropyl-N-((S)-1-(4,4-difluorocyclohexyl)-2-oxo-2-((4-(((S)-2-oxo-4-(trifluoromethyl)-imidazolidin-1-yl)methyl)-pyridin-2-yl)amino)ethyl)-isoxazole-4-carboxamide] | 183
28 | COCC(NC(=O)CCC(F)(F)F)c1ccnc(NC(=O)[C@@H](NC(=O)c2ccnn2CC2CC2)C2CCC(F)(F)CC2)c1 (single isomer, unassigned) [Example 142] | 203
